From PubChem BioAssay (NCI)
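Assay format: 96-well plates, 48-hour exposure. Definition used: TGI = concentration required for complete inhibition of growth.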

How the values were obtained:
Test in all cases: DTP human tumour cell line panel, 48 h
[1] = test system: 786-0 renal
[2] = test system: A549 NSCLC
[3] = test system: ACHN renal
[4] = test system: BT-549 breast
[5] = test system: CAKI-1 renal
[6] = test system: CCRF-CEM leukemia
[7] = test system: COLO 205 colon
[8] = test system: DU-145 prostate
[9] = test system: EKVX NSCLC
[10] = test system: HCC-2998 colon
[11] = test system: HCT-116 colon
[12] = test system: HCT-15 colon
[13] = test system: HL-60(TB) leukemia
[14] = test system: HOP-62 NSCLC
[15] = test system: HOP-92 NSCLC
[16] = test system: HS 578T breast
[17] = test system: IGROV1 ovarian
[18] = test system: KM12 colon
[19] = test system: LOX IMVI melanoma
[20] = test system: M14 melanoma
[21] = test system: MCF7 breast
[22] = test system: MDA-MB-231 breast
[23] = test system: MDA-MB-435
[24] = test system: MDA-N
[25] = test system: MOLT-4 leukemia
[26] = test system: NCI-H226 lung
[27] = test system: NCI-H23 lung
[28] = test system: NCI-H460 lung
[29] = test system: NCI-H522 lung
[30] = test system: NCI/ADR-RES ovarian
[31] = test system: OVCAR-3 ovarian
[32] = test system: OVCAR-4 ovarian
[33] = test system: OVCAR-5 ovarian
[34] = test system: OVCAR-8 ovarian
[35] = test system: PC-3 prostate
[36] = test system: RXF 393 renal
[37] = test system: SF-268 CNS
[38] = test system: SF-295 CNS
[39] = test system: SF-539 CNS
[40] = test system: SK-MEL-2 melanoma
[41] = test system: SK-MEL-28 melanoma
[42] = test system: SK-MEL-5 melanoma
[43] = test system: SK-OV-3 ovarian
[44] = test system: SN12C renal
[45] = test system: SNB-19 CNS
[46] = test system: SNB-75 CNS
[47] = test system: SW-620 colon
[48] = test system: TK-10 renal
[49] = test system: U251 CNS
[50] = test system: UACC-257 melanoma
[51] = test system: UACC-62 melanoma
[52] = test system: UO-31 renal
[53] = test system: A498 renal
[54] = test system: HT29 colon
[55] = test system: MALME-3M melanoma
[56] = test system: SR leukemia
[57] = test system: K-562 leukemia
[58] = test system: RPMI-8226 leukemia

## CCCCOC(=O)C(=O)C(CC(CC)C(=O)c1ccccc1)C(=O)C=C(C)C (stereo unspecified)
[1]
  TGI: > 100 µM
[2]
  TGI: > 100 µM
[3]
  TGI: > 100 µM
[4]
  TGI: > 100 µM
[5]
  TGI: > 100 µM
[6]
  TGI: > 100 µM
[7]
  TGI: > 100 µM
[8]
  TGI: > 100 µM
[9]
  TGI: > 100 µM
[10]
  TGI: > 100 µM
[11]
  TGI: > 100 µM
[12]
  TGI: > 100 µM
[13]
  TGI: > 100 µM
[14]
  TGI: > 100 µM
[15]
  TGI: > 100 µM
[16]
  TGI: > 100 µM
[17]
  TGI: > 100 µM
[18]
  TGI: > 100 µM
[19]
  TGI: > 100 µM
[20]
  TGI: > 100 µM
[21]
  TGI: > 100 µM
[22]
  TGI: > 100 µM
[23]
  TGI: > 100 µM
[24]
  TGI: > 100 µM
[25]
  TGI: > 100 µM
[26]
  TGI: > 100 µM
[27]
  TGI: > 100 µM
[28]
  TGI: > 100 µM
[29]
  TGI: > 100 µM
[30]
  TGI: > 100 µM
[31]
  TGI: > 100 µM
[32]
  TGI: > 100 µM
[33]
  TGI: > 100 µM
[34]
  TGI: > 100 µM
[35]
  TGI: > 100 µM
[36]
  TGI: > 100 µM
[37]
  TGI: > 100 µM
[38]
  TGI: > 100 µM
[39]
  TGI: > 100 µM
[40]
  TGI: > 100 µM
[41]
  TGI: > 100 µM
[42]
  TGI: > 100 µM
[43]
  TGI: > 100 µM
[44]
  TGI: > 100 µM
[45]
  TGI: > 100 µM
[46]
  TGI: > 100 µM
[47]
  TGI: > 100 µM
[48]
  TGI: > 100 µM
[49]
  TGI: > 100 µM
[50]
  TGI: > 100 µM
[51]
  TGI: > 100 µM
[52]
  TGI: > 100 µM

## c1ccc2c3ccn4ccc5c6ccccc6[nH]c5c4c-3nc2c1
[53]
  TGI: 3.02 µM
[2]
  TGI: 1.26 µM
[3]
  TGI: 2.74 µM
[4]
  TGI: 3.6 µM
[5]
  TGI: 2.93 µM
[7]
  TGI: 1.79 µM
[8]
  TGI: 2.73 µM
[9]
  TGI: 2.72 µM
[10]
  TGI: 0.879 µM
[11]
  TGI: 1.69 µM
[12]
  TGI: 1.38 µM
[13]
  TGI: 2.43 µM
[14]
  TGI: 2.76 µM
[15]
  TGI: 3.12 µM
[16]
  TGI: 5.23 µM
[54]
  TGI: 1.11 µM
[17]
  TGI: 2.83 µM
[18]
  TGI: 2.3 µM
[19]
  TGI: 0.316 µM
[20]
  TGI: 3.79 µM
[55]
  TGI: 3.06 µM
[21]
  TGI: 2.65 µM
[22]
  TGI: 1.31 µM
[23]
  TGI: 2.89 µM
[24]
  TGI: 2.69 µM
[27]
  TGI: 3.61 µM
[28]
  TGI: 0.63 µM
[29]
  TGI: 3.27 µM
[30]
  TGI: 4.27 µM
[31]
  TGI: 0.315 µM
[32]
  TGI: 0.552 µM
[33]
  TGI: 2.92 µM
[34]
  TGI: 0.638 µM
[35]
  TGI: 2.71 µM
[38]
  TGI: 3 µM
[39]
  TGI: 2.98 µM
[40]
  TGI: 3.13 µM
[41]
  TGI: 3.2 µM
[42]
  TGI: 2.8 µM
[43]
  TGI: 3.02 µM
[44]
  TGI: 2.68 µM
[45]
  TGI: 2.93 µM
[46]
  TGI: 2.98 µM
[56]
  TGI: 0.625 µM
[47]
  TGI: 0.34 µM
[48]
  TGI: 4.2 µM
[49]
  TGI: 0.0992 µM
[50]
  TGI: 4.25 µM
[51]
  TGI: 3.51 µM
[52]
  TGI: 2.71 µM

## COc1cc2c[n+](C)c3c4cc(OC)c(OC)cc4c(OCc4ccccc4)cc3c2cc1OC
[1]
  TGI: 12.3 µM
[53]
  TGI: > 86.7 µM
[2]
  TGI: > 100 µM
[3]
  TGI: > 100 µM
[4]
  TGI: 1.71 µM
[5]
  TGI: > 90.7 µM
[7]
  TGI: 1.96 µM
[8]
  TGI: 9.81 µM
[9]
  TGI: > 100 µM
[10]
  TGI: 41.3 µM
[12]
  TGI: > 100 µM
[14]
  TGI: 10.5 µM
[15]
  TGI: 3.24 µM
[54]
  TGI: 7.29 µM
[57]
  TGI: > 100 µM
[20]
  TGI: 4.2 µM
[55]
  TGI: 3.31 µM
[21]
  TGI: 5.05 µM
[22]
  TGI: 6.69 µM
[23]
  TGI: 2.34 µM
[24]
  TGI: 2.53 µM
[25]
  TGI: > 80.1 µM
[26]
  TGI: 3.94 µM
[27]
  TGI: 4.36 µM
[28]
  TGI: > 100 µM
[29]
  TGI: 1.5 µM
[30]
  TGI: > 100 µM
[31]
  TGI: 3.97 µM
[32]
  TGI: > 27.5 µM
[33]
  TGI: > 100 µM
[34]
  TGI: 5.02 µM
[35]
  TGI: 3.41 µM
[58]
  TGI: 77.2 µM
[36]
  TGI: 6.19 µM
[37]
  TGI: 1.97 µM
[38]
  TGI: 96.9 µM
[40]
  TGI: 3.37 µM
[41]
  TGI: 2.55 µM
[42]
  TGI: 2.69 µM
[43]
  TGI: > 100 µM
[44]
  TGI: > 100 µM
[45]
  TGI: 1.92 µM
[56]
  TGI: > 100 µM
[47]
  TGI: > 100 µM
[48]
  TGI: > 100 µM
[49]
  TGI: 1.08 µM
[50]
  TGI: 3.38 µM
[51]
  TGI: 1.8 µM
[52]
  TGI: > 100 µM
